Paper PMC8119466, “A screen of FDA-approved drugs identifies inhibitors of protein tyrosine phosphatase 4A3 (PTP4A3 or PRL-3)” (Scientific Reports, 2021)
Structures can show the parent of a compound that is named as a salt. Where two headings read alike, the source gives them in different places. Starred links: 1 amine or outer side, 2 acyl side, 3 side chain; linkers in the order of their positions; H or OH if unused. Positions of bridges follow the written chain, without caps; N, C: chain ends. Non-standard residues stand in square brackets, D forms with d. Residues, ends and D or L forms follow the SMILES beside them. *: point of attachment. hTyr(3S-OH,4S-OH,3'-OSO3H) = N[C@H](C(=O)O)[C@H](O)[C@@H](O)c1ccc(O)c(OS(=O)(=O)O)c1; Orn(4R-OH,5R-OH) = O=C([C@H](C[C@@H](O)[C@@H](O)N[*:3])N[*:1])[*:2]; Pro(3S-OH,4S-Me) = C[C@H]1CN[C@H](C(=O)O)[C@H]1O; X1 = CCCCCOc1ccc(-c2cc(-c3ccc(C(=O)*)cc3)no2)cc1; Gln(3R-OH) = NC(=O)C[C@@H](O)[C@H](N)C(=O)O; Hyp = O=C(O)[C@@H]1C[C@@H](O)CN1

Assays:
Type in all cases: biochemical
[1] = target: T1, recombinant PRL-1 (Homo sapiens, UniProt Q93096); experiment: In vitro phosphatase assay (DiFMUP hydrolysis), PRL-1; also: test concentration or dose not given here
T1 construct: 6xHis (N, cleaved yes); made in house; host or cells: E. coli One Shot BL21 Star
T1 sequence (Q93096 1-173): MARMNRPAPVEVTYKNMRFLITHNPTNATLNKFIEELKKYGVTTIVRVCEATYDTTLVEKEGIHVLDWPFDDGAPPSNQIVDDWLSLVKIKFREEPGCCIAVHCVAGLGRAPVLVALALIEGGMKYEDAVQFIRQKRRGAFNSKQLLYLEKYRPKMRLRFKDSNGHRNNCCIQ

[2] = target: T2, recombinant PRL-2 (Homo sapiens, UniProt Q12974); experiment: In vitro phosphatase assay (DiFMUP hydrolysis), PRL-2;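 also: PRL-2 activity read as DiFMUP hydrolysis after 20 min at room temperature with drug, enzyme first pre-reduced at 4 °C for 20 min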
T2 construct: 6xHis (N, cleaved yes); made in house; host or cells: E. coli One Shot BL21 Star
T2 sequence (Q12974 1-167): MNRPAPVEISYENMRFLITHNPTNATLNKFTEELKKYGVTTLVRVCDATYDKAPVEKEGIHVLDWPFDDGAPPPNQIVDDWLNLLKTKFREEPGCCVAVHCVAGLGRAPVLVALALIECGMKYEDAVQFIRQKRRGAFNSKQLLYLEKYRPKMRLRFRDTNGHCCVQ

[3] = target: T3, recombinant PRL-3 (Homo sapiens, UniProt O75365); experiment: In vitro phosphatase assay (DiFMUP hydrolysis), PRL-3; also: test concentration or dose not given here
T3 construct: 6xHis (N, cleaved yes); made in house; host or cells: E. coli One Shot BL21 Star

[4] = FDA-approved drug screen, compared to DMSO
[5] = FDA-approved drug screen, activity compared to DMSO

T3 sequence (O75365 whole entry): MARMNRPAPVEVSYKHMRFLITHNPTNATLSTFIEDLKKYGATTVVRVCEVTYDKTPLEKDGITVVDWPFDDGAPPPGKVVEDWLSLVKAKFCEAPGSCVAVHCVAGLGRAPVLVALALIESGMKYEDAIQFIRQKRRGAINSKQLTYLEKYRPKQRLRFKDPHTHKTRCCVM

Row | SMILES | % Phosphatase Activity (compared to DMSO) PRL-1 [1, 4] [%] | % Phosphatase Activity (compared to DMSO) PRL-2 [2, 4] [%] | % Phosphatase Activity (compared to DMSO) PRL-3 [3, 4] [%] | also measured
1 | CCCCN1CCCC[C@H]1C(=O)Nc1c(C)cccc1C [Levobupivacaine HCl] | 91 | 108 | 72 | 
2 | C1CNCCN1 [Piperazine] |  |  |  | % Phosphatase Activity (compared to DMSO) PRL-1 [1]: 95%; % Phosphatase Activity (compared to DMSO) PRL-2 [2]: 112%; % Phosphatase Activity (compared to DMSO) PRL-3 [3]: 71%
3 | CC(C)CN(C[C@@H](O)[C@H](Cc1ccccc1)NC(=O)O[C@H]1CO[C@H]2OCC[C@H]21)S(=O)(=O)c1ccc(N)cc1.CCO [Darunavir Ethanolate] | 99 | 81 | 80 | 
4 | CC(=O)Oc1cc2c(s1)CCN(C(C(=O)C1CC1)c1ccccc1F)C2 (stereo not drawn) [Prasugrel Hydrochloride] | 92 | 109 | 87 | 
5 | Cc1nc2c([nH]1)-c1ccccc1N(C(=O)c1ccc(NC(=O)c3ccccc3-c3ccccc3)cc1)CC2.Cl [Conivaptan HCl] | 95 | 106 | 85 | 
6 | CC(C)OC(=O)C(C)(C)Oc1ccc(C(=O)c2ccc(Cl)cc2)cc1 [Fenofibrate] | 88 | 89 | 101 | 
7 | CNC(=O)[C@H](Cc1ccccc1)NC(=O)[C@H](CC(C)C)[C@H](CSc1cccs1)C(=O)NO [Batimastat (BB-94)] | 88 | 79 | 89 | 
8 | COCC[n+]1c2c(n(Cc3cnccn3)c1C)C(=O)c1ccccc1C2=O.[Br-] [YM155 (Sepantronium Bromide)] |  |  |  | % Phosphatase Activity (compared to DMSO) PRL-1 [1, 5]: 11%; % Phosphatase Activity (compared to DMSO) PRL-2 [2, 5]: 13%; % Phosphatase Activity (compared to DMSO) PRL-3 [3, 5]: 5%
9 | CN1CCN(C2=Nc3cc(Cl)ccc3Nc3ccccc32)CC1 [Clozapine] | 108 | 95 | 85 | 
10 | CN(C)CCC=C1c2ccccc2C=Cc2ccccc21 [Cyclobenzaprine HCl] |  |  |  | % Phosphatase Activity (compared to DMSO) PRL-1 [1]: 104%; % Phosphatase Activity (compared to DMSO) PRL-2 [2]: 103%; % Phosphatase Activity (compared to DMSO) PRL-3 [3]: 85%
11 | CCN(CC)CCOc1ccc(C(=C(Cl)c2ccccc2)c2ccccc2)cc1 [Clomifene citrate] | 120 | 128 | 96 | 
12 | CCOC(=O)C1=C[C@@H](OC(CC)CC)[C@H](NC(C)=O)[C@@H](N)C1 [Oseltamivir Phosphate] | 91 | 102 | 94 | 
13 | O=C(NS(=O)(=O)c1ccc(Br)s1)c1ccc(Cl)cc1Cl [Tasisulam] |  |  |  | % Phosphatase Activity (compared to DMSO) PRL-1 [1, 5]: 94%; % Phosphatase Activity (compared to DMSO) PRL-2 [2, 5]: 87%; % Phosphatase Activity (compared to DMSO) PRL-3 [3, 5]: 99%
14 | CC(=O)NC(CCC(N)=O)C(=O)O (stereo not drawn) [Aceglutamide] | 107 | 96 | 87 | 
15 | Cl.O=S(=O)(c1cccc2cnccc12)N1CCCNCC1 [Fasudil (HA-1077) HCl] | 102 | 95 | 82 | 
16 | COc1cc([C@@H]2c3cc4c(cc3[C@@H](O[C@@H]3O[C@@H]5CO[C@@H](C)O[C@H]5[C@H](O)[C@H]3O)[C@H]3COC(=O)[C@H]23)OCO4)cc(OC)c1O [Etoposide] | 90 | 98 | 70 | 

Row | SMILES | % Phosphatase Activity (compared to DMSO) PRL-1 [1, 4] [%] | % Phosphatase Activity (compared to DMSO) PRL-2 [2, 4] [%] | % Phosphatase Activity (compared to DMSO) PRL-3 [3, 4] [%] | also measured
17 | CC(C)NC[C@@H](O)COc1ccc(CC(N)=O)cc1 [(R)-(+)-Atenolol] | 113 | 109 | 74 | 
18 | NC(=O)CC[C@H](N)C(=O)O [L-Glutamine] | 94 | 77 | 87 | 
19 | CC[N+](CC)(CC)CCOc1cccc(OCC[N+](CC)(CC)CC)c1OCC[N+](CC)(CC)CC [Gallamine Triethiodide] | 104 | 105 | 84 | 
20 | NC(=O)c1ncn([C@@H]2O[C@H](CO)[C@@H](O)[C@H]2O)n1 [Ribavirin] | 105 | 108 | 83 | 
21 | COc1cc2nc(N3CCN(C(=O)C4CCCO4)CC3)nc(N)c2cc1OC (stereo not drawn) [Terazosin HCl] |  |  |  | % Phosphatase Activity (compared to DMSO) PRL-1 [1, 5]: 510%; % Phosphatase Activity (compared to DMSO) PRL-2 [2, 5]: 644%; % Phosphatase Activity (compared to DMSO) PRL-3 [3, 5]: 324%
22 | Cl.NCCCC(N)(C(=O)O)C(F)F.O (stereo not drawn) [Eflornithine hydrochloride hydrate] | 91 | 84 | 103 | 
23 | CC(C)(C)C(=O)Oc1ccc(S(=O)(=O)Nc2ccccc2C(=O)NCC(=O)O)cc1 [Sivelestat sodium] |  |  |  | % Phosphatase Activity (compared to DMSO) PRL-1 [1, 5]: 89%; % Phosphatase Activity (compared to DMSO) PRL-2 [2, 5]: 86%; % Phosphatase Activity (compared to DMSO) PRL-3 [3, 5]: 75%
24 | CCCCCOc1ccc(-c2cc(-c3ccc(C(=O)N[C@H]4C[C@@H](O)[C@@H](O)NC(=O)[C@@H]5[C@@H](O)[C@@H](C)CN5C(=O)[C@H]([C@H](O)CC(N)=O)NC(=O)[C@H]([C@H](O)[C@@H](O)c5ccc(O)c(OS(=O)(=O)[O-])c5)NC(=O)[C@@H]5C[C@@H](O)CN5C(=O)[C@H]([C@@H](C)O)NC4=O)cc3)no2)cc1.[Na+] [Micafungin Sodium] (X1-[Orn(4R-OH,5R-OH)]T[Hyp][hTyr(3S-OH,4S-OH,3'-OSO3H)][Gln(3R-OH)][Pro(3S-OH,4S-Me)]; lactam 1-C) | 74 | 90 | 49 | 
25 | CN(C)C(=O)C(CCN1CCC(O)(c2ccc(Cl)cc2)CC1)(c1ccccc1)c1ccccc1 [Loperamide HCl] | 105 | 99 | 81 | 
26 | N[C@@H]1CN(c2c(F)cc3c(=O)c(C(=O)O)cn([C@@H]4C[C@@H]4F)c3c2Cl)CC12CC2.O [Sitafloxacin Hydrate] |  |  |  | % Phosphatase Activity (compared to DMSO) PRL-1 [1, 5]: 91%; % Phosphatase Activity (compared to DMSO) PRL-2 [2, 5]: 90%; % Phosphatase Activity (compared to DMSO) PRL-3 [3, 5]: 81%
27 | CCC(=O)OCC(=O)[C@@]1(OC(=O)CC)[C@@H](C)C[C@H]2[C@@H]3CCC4=CC(=O)C=C[C@]4(C)[C@@]3(F)[C@@H](O)C[C@@]21C [Betamethasone Dipropionate] | 92 | 83 | 84 | 
28 | COc1ccc(C(=O)N2CCCC2=O)cc1 [Aniracetam] | 102 | 104 | 75 | 
29 | Cc1ccc(S(=O)(=O)NC(=O)NN2CCCCCC2)cc1 [Tolazamide] |  |  |  | % Phosphatase Activity (compared to DMSO) PRL-1 [1, 5]: 81%; % Phosphatase Activity (compared to DMSO) PRL-2 [2, 5]: 84%; % Phosphatase Activity (compared to DMSO) PRL-3 [3, 5]: 82%
30 | O=C1CCC(N2C(=O)c3ccccc3C2=O)C(=O)N1 (stereo not drawn) [Thalidomide] |  |  |  | % Phosphatase Activity (compared to DMSO) PRL-1 [1, 5]: 97%; % Phosphatase Activity (compared to DMSO) PRL-2 [2, 5]: 91%; % Phosphatase Activity (compared to DMSO) PRL-3 [3, 5]: 79%
31 | CCCCCCCCCCC[C@@H](C[C@@H]1OC(=O)[C@H]1CCCCCC)OC(=O)[C@H](CC(C)C)NC=O [Orlistat] | 113 | 91 | 79 | 
32 | CC1CNc2c(cccc2S(=O)(=O)N[C@@H](CCCNC(=N)N)C(=O)N2CC[C@@H](C)C[C@@H]2C(=O)O)C1 (stereo partly drawn) [Argatroban] | 104 | 100 | 80 | 
